“And” between values parts separate entries of the source, which are not always exact repeats. Equal values may be shown once.
How the values were obtained:
Assay in all cases: normalised viability (% of control), CellTiter-Blue; higher = more viable cells (about 100 = DMSO control)
Settings in all cases: incubation time: 72 h
CAL-148 = tested on: CAL-148
In short: (§1)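 Plates were quality-checked by Z'-factor and normalised to vehicle (100) and a positive kill control (0). The underlying assay incubated breast cancer cell lines for 72 h on 384-well plates with compound, then added 2.5 µl CellTiter-Blue for 2 h at 37 °C and read at 560/590 nm. The value is normalised viability at a single listed concentration of the series.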

CAL-85-1 = tested on: CAL-85-1
In short: as §1

HCC1599 = tested on: HCC1599
In short: as §1

MDA-MB-231 = tested on: MDA-MB-231
In short: as §1

MFM-223 = tested on: MFM-223
In short: as §1

CAL-51 = tested on: CAL-51
In short: as §1

Hs578T = tested on: Hs578T
In short: as §1

DU-4475 = tested on: DU-4475
In short: as §1

HCC1937 = tested on: HCC1937
In short: as §1

MDA-MB-453 = tested on: MDA-MB-453
In short: as §1

CC1=C2C[C@H]3[C@@H](CC=C4C[C@@H](O)CC[C@@]43C)[C@@H]2CC[C@]12O[C@@H]1C[C@H](C)CN[C@H]1[C@H]2C [Cyclopamine]
normalised viability [%]
Settings | CAL-51 | CAL-85-1 | CAL-148 | DU-4475 | HCC1599 | HCC1937 | Hs578T | MDA-MB-231 | MDA-MB-453 | MFM-223
3 nM | 114 | 104 | 104 | 102 | – | – | – | – | 123 | –
10 nM | – | – | – | – | 108 | 100 | 127 | 107 | – | 96
30 nM | 104 | 91.9 | 117 | 103 | – | – | – | – | 101 | –
100 nM | 111 | 99.9 | 110 | 107 | – | – | – | – | 120 | –
1000 nM | – | – | – | – | 112 | 74 | 102 | 97.2 | – | 90.2
10000 nM | – | – | – | – | 100 | 105 | 105 | 104 | – | 103

CC(=O)O[C@@]12CO[C@@H]1C[C@H](O)[C@@]1(C)C(=O)[C@H](O)C3=C(C)[C@@H](OC(=O)[C@H](O)[C@@H](NC(=O)OC(C)(C)C)c4ccccc4)C[C@@](O)([C@@H](OC(=O)c4ccccc4)[C@H]21)C3(C)C [Docetaxel]
normalised viability
Settings | CAL-51 | CAL-85-1 | CAL-148 | DU-4475 | HCC1599 | HCC1937 | Hs578T | MDA-MB-231 | MDA-MB-453 | MFM-223
0.3 nM | 112% and 93.8% | 96.7% and 101% | 97.3% and 89.1% | 116% and 110% | – | – | – | – | 121% and 107% | –
1 nM | – | – | – | – | 134% and 119% | 53.9% and 76.2% | 69% and 63.9% | 83% and 72.7% | – | 84.9% and 81.8%
3 nM | 67.8% and 60.9% | 56% and 56.9% | 41.6% and 29.8% | 50.8% and 35.1% | – | – | – | – | 48.1% and 57.8% | –
10 nM | 45.5% and 33.4% | 36.1% and 35.2% | 21.9% and 19.9% | 34.5% and 35.6% | – | – | – | – | 39.6% and 31.9% | –
100 nM | – | – | – | – | 101% and 94.3% | 20.5% and 17.5% | 11.7% and 12.4% | 17% and 21.6% | – | 43.6% and 47.1%
1000 nM | – | – | – | – | 104% and 99.7% | 27.5% and 19% | 12.3% and 9.74% | 21.6% and 21% | – | 47.8% and 41.5%

C[C@]12CC[C@@H]3c4ccc(OC(=O)N(CCCl)CCCl)cc4CC[C@H]3[C@@H]1CC[C@@H]2O [Estramustine]
normalised viability [%]
Settings | CAL-51 | CAL-85-1 | CAL-148 | DU-4475 | HCC1599 | HCC1937 | Hs578T | MDA-MB-231 | MDA-MB-453 | MFM-223
0.297 nM | 88.7 | 100 | 118 | 93.6 | – | – | – | – | 89.2 | –
0.99 nM | – | – | – | – | 89 | 88.9 | 113 | 100 | – | 101
2.97 nM | 86.3 | 90.9 | 101 | 99.3 | – | – | – | – | 102 | –
9.9 nM | 86.7 | 101 | 106 | 108 | – | – | – | – | 101 | –
99 nM | – | – | – | – | 76.9 | 75 | 100 | 109 | – | 98.3
990 nM | – | – | – | – | 98.3 | 92.2 | 98 | 119 | – | 103

CC1(C)CNc2cc(NC(=O)c3cccnc3NCc3ccncc3)ccc21 [Motesanib]
normalised viability [%]
Settings | CAL-51 | CAL-85-1 | CAL-148 | DU-4475 | HCC1599 | HCC1937 | Hs578T | MDA-MB-231 | MDA-MB-453 | MFM-223
3 nM | 109 | 83.1 | 94.8 | 85.6 | – | – | – | – | 96.1 | –
10 nM | – | – | – | – | 83.8 | 104 | 104 | 69.8 | – | 80.8
30 nM | 110 | 80.9 | 83.7 | 79.6 | – | – | – | – | 71.3 | –
100 nM | 97.2 | 85.3 | 90.7 | 83.9 | – | – | – | – | 69.6 | –
1000 nM | – | – | – | – | 98.1 | 91.5 | 95.5 | 77.3 | – | 76.4
10000 nM | – | – | – | – | 95.9 | 88.5 | 95.7 | 72.8 | – | 83.2

C[C@]1(O)C[C@@H](c2nc(-c3ccc4ccc(-c5ccccc5)nc4c3)c3c(N)nccn32)C1 [OSI-906]
normalised viability [%]
Settings | CAL-51 | CAL-85-1 | CAL-148 | DU-4475 | HCC1599 | HCC1937 | Hs578T | MDA-MB-231 | MDA-MB-453 | MFM-223
3 nM | 91.2 | 97.3 | 96.8 | 92.7 | – | – | – | – | 97.9 | –
10 nM | – | – | – | – | 104 | 92.8 | 103 | 84.4 | – | 98.3
30 nM | 97.5 | 85.7 | 89.8 | 104 | – | – | – | – | 92.9 | –
100 nM | 96.3 | 86.4 | 91.7 | 88.8 | – | – | – | – | 78.6 | –
1000 nM | – | – | – | – | 76.8 | 79.7 | 95.2 | 79.7 | – | 91.6
10000 nM | – | – | – | – | 78.9 | 48.4 | 71.4 | 74.3 | – | 74.5

CC[C@@H]1C(=O)OC[C@@H]1Cc1cncn1C [Pilocarpine]
normalised viability [%]
Settings | CAL-51 | CAL-85-1 | CAL-148 | DU-4475 | HCC1599 | HCC1937 | Hs578T | MDA-MB-231 | MDA-MB-453 | MFM-223
12 nM | 110 | 98.1 | 95.5 | 103 | – | – | – | – | 118 | –
40 nM | – | – | – | – | 104 | 109 | 101 | 94.9 | – | 96.4
120 nM | 103 | 98.3 | 101 | 92.1 | – | – | – | – | 93.5 | –
400 nM | 98.2 | 101 | 104 | 107 | – | – | – | – | 100 | –
4000 nM | – | – | – | – | 92.2 | 107 | 102 | 116 | – | 90.7
40000 nM | – | – | – | – | 92.8 | 97.4 | 108 | 118 | – | 63.7

COc1cc(F)c(F)c(Nc2ccc(I)cc2F)c1NS(=O)(=O)C1(C[C@H](O)CO)CC1 [RDEA119]
normalised viability [%]
Settings | CAL-51 | CAL-85-1 | CAL-148 | DU-4475 | HCC1599 | HCC1937 | Hs578T | MDA-MB-231 | MDA-MB-453 | MFM-223
3 nM | 97 | 95.2 | 91.9 | 91.4 | – | – | – | – | 87.9 | –
10 nM | – | – | – | – | 92.5 | 102 | 103 | 73.7 | – | 94.8
30 nM | 84.5 | 98.8 | 80.7 | 61.2 | – | – | – | – | 95.5 | –
100 nM | 81.2 | 97.3 | 80 | 28.2 | – | – | – | – | 98.7 | –
1000 nM | – | – | – | – | 78.6 | 72.4 | 69.7 | 28.7 | – | 75.7
10000 nM | – | – | – | – | 82 | 62.8 | 54.5 | 29.3 | – | 54.7

CC(C)(C)c1cnc(CSc2cnc(NC(=O)C3CCNCC3)s2)o1 [SNS-032]
normalised viability [%]
Settings | CAL-51 | CAL-85-1 | CAL-148 | DU-4475 | HCC1599 | HCC1937 | Hs578T | MDA-MB-231 | MDA-MB-453 | MFM-223
3 nM | 113 | 88.8 | 91.9 | 101 | – | – | – | – | 118 | –
10 nM | – | – | – | – | 113 | 138 | 104 | 106 | – | 87.9
30 nM | 107 | 78.5 | 99.5 | 86.9 | – | – | – | – | 92.7 | –
100 nM | 107 | 70.1 | 77.1 | 87.5 | – | – | – | – | 70.8 | –
1000 nM | – | – | – | – | 17.4 | 23.1 | 5.65 | 8.24 | – | 14.2
10000 nM | – | – | – | – | 22.4 | 17.1 | 4 | 7.03 | – | 20

Cn1cnc2c(F)c(Nc3ccc(Br)cc3Cl)c(C(=O)NOCCO)cc21 [Selumetinib]
normalised viability [%]
Settings | CAL-51 | CAL-85-1 | CAL-148 | DU-4475 | HCC1599 | HCC1937 | Hs578T | MDA-MB-231 | MDA-MB-453 | MFM-223
3 nM | 116 | 88.1 | 91 | 95.1 | – | – | – | – | 122 | –
10 nM | – | – | – | – | 112 | 65.3 | 90.8 | 90.3 | – | 86.2
30 nM | 102 | 93.6 | 87.9 | 72.5 | – | – | – | – | 105 | –
100 nM | 96.3 | 100 | 88.9 | 43.7 | – | – | – | – | 110 | –
1000 nM | – | – | – | – | 78.3 | 83.8 | 89.8 | 49.5 | – | 89.7
10000 nM | – | – | – | – | 76.3 | 68.6 | 76.2 | 30 | – | 73.1

— the supplement of paper PMC4862054
